Experiment [1] concerns the target T1, fibrin (in vitro human plasma clot) (Homo sapiens, UniProt P02671+P02675+P02679).
T1 construct: about 400 μl of human plasma containing the radiolabelled substrate; from tissue; host or cells: human plasma, clotted in vitro with added thrombin and calcium chloride
T1 sequence (P02671 20-644 isoform P02671-2 limits assumed): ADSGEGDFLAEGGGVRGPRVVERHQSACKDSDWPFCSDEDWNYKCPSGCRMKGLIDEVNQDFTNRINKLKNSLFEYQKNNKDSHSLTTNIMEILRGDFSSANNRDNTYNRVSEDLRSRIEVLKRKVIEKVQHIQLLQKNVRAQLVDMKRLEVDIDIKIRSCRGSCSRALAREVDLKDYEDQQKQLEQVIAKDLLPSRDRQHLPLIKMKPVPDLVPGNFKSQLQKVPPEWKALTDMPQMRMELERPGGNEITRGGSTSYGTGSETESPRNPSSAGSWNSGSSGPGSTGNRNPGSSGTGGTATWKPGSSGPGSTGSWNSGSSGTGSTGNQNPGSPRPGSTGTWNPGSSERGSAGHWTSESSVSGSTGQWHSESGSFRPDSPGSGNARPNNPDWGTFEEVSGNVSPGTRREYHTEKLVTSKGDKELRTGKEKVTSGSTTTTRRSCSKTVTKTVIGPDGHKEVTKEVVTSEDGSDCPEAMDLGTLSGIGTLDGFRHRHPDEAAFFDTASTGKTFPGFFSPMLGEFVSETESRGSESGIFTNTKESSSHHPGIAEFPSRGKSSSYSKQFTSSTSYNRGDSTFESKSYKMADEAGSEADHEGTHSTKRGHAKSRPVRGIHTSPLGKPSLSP
T1 sequence (P02675 45-491 limits assumed): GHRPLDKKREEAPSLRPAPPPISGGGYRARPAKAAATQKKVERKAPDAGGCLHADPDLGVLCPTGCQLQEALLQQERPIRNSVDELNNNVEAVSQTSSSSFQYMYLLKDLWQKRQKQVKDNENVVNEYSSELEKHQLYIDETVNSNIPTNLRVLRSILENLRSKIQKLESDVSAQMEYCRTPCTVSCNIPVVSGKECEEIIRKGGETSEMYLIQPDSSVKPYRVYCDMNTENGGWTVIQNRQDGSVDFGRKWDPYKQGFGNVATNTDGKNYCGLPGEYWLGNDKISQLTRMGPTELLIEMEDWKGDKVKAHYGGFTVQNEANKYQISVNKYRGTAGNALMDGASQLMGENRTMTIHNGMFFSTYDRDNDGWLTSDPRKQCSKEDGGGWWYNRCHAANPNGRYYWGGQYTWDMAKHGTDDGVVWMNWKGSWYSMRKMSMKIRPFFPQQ
T1 sequence (P02679 27-437 isoform P02679-2 limits assumed): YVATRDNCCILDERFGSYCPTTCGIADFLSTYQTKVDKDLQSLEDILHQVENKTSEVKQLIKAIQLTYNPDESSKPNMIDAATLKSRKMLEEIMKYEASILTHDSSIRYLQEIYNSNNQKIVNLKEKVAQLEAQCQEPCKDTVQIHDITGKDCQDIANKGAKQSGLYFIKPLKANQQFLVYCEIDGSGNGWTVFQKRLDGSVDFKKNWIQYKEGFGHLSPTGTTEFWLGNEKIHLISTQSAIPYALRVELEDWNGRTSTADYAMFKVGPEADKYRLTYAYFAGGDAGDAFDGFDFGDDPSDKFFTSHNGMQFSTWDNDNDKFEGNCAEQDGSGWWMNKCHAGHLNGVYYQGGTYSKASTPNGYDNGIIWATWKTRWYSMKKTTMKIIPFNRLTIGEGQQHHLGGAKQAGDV
Kind of experiment: Incorporation into human plasma clots in vitro. Format: biochemical. Conditions: for % specific uptake: % retained (with thrombin) - % retained (no thrombin); for % retained (no thrombin): control without thrombin and calcium chloride (non-specific binding); for % retained (with thrombin): human plasma clot, 60 minutes, ca. 20° C. The protocol: Incorporation of radiolabelled substrates into fibrin was investigated by induction of an in vitro human plasma clot in the following manner. To a siliconised 5 ml glass vial was added, (a) 800 μl of Tris(hydroxymethyl)aminomethane buffered saline pH 7.5 containing calcium chloride (50 mM Tris, 150 mM sodium chloride, 4 mM calcium chloride.), (b) about 40 μl of physiological salt solution containing 100 units of thrombin per ml, (c) about 400 μl of human plasma containing the radiolabelled substrate at a concentration of typically 10 kBq/ml. To aid induction of clot a roughened glass rod was added to the reaction vial. Control vials were prepared similarly but with the omission of thrombin and calcium chloride.
After incubation of the test solution at ambient laboratory temperature (ca. 20° C.) for 60 minutes the reaction was discontinued with the addition of about 400 μl of a cold solution of 33.5 mM ethylenediaminetetra-acetic acid disodium salt. Clots were separated from serum by vacuum filtration onto […] nitrocellulose filters (pre-soaked in 1.5% BSA/tris(hydroxymethyl)aminoethae buffered saline pH 7.5 containing 0.1% Tween 20) and washed with about 2×10 ml of tris(hydroxymethyl)aminomethane buffered saline pH 7.5 containing Tween 20 to a final concentration of 0.1% v/v. The proportion of total radioactivity was calculated by counting in suitable detection apparatus.
The fraction of radioactivity retained on the filter, after subtraction of the non-specific binding determined from the control, is a measure of incorporation into the filtered clots.

The nature of experiment [2]: Incorporation into clots induced in a rat model (rat inferior vena cava model). Format: in vivo, rat (Male Wistar). The settings on record: for % id/g (clot) / Rel. Conc. (cpm/g of clot by dose/g animal): sacrificed after 60 min. The method, then: The rats (Male Wistar, 250–350 g) were anaesthetised with 15% urethane. After laparotomy, the vena cava was isolated and freed of surrounding fat tissue. […] The compounds were injected 5 min (fresh clot) and 60 min (aged clot) post-induction. After 60 min the animals were sacrificed and the clot removed, weighed and counted. Other tissues e.g. blood, lung, heart, were also dissected and counted. The uptake of tracer into the clot was determined as the relative concentration (cpm/g of clot by dose/g animal) and clot to background tissue.

Setting [3] is: Aged Clots: injected 60 min post-induction.
The mark [4] stands for this setting: Fresh Clots: injected 5 min post-induction.

Turning to “Ac-NQEQVSP(I-Y)TLLKG-Pn216 [^99mTc-Cmpd 22]”, in experiment [1], the “% specific uptake” value was 58.7%, the “% retained (no thrombin)” value worked out at 0.3% and the “% retained (with thrombin)” value was 59.0%. In experiment [2] (Aged Clots), this substance yielded a Clot/blood of 11, a Clot/heart of 3, a Clot/liver of 4 and a Clot/lung of 1. Besides, in experiment [2] (setting [3]), the “% id/g (clot)” value is recorded as 6.9 ± 2.5 % id/g and the “Rel. Conc. (cpm/g of clot by dose/g animal)” value came to 22.7 ± 7.4. In experiment [2] (Fresh Clots), the Clot/blood is reported as 11, the Clot/heart came to 28, the Clot/liver came to 25 and the Clot/lung was 13. Moreover, in experiment [2] (setting [4]), the “% id/g (clot)” value is recorded as 3.8 ± 1.6 % id/g and the “Rel. Conc. (cpm/g of clot by dose/g animal)” value turned out to be 13.0 ± 5.5.

Turning to “Ac-NQEQVSP(pBr-F)TLLKG-Pn216 [^99mTc-Cmpd 21]”, in experiment [1], the “% specific uptake” value was 60.1%, the “% retained (no thrombin)” value is 0.5% and the “% retained (with thrombin)” value came to 60.6%. In experiment [2] (Aged Clots), this substance came in with a Clot/blood of 31, a Clot/heart of 32, a Clot/liver of 31 and a Clot/lung of 13. Moreover, in experiment [2] (setting [3]), the “% id/g (clot)” value stood at 2.7 ± 2.3 % id/g and the “Rel. Conc. (cpm/g of clot by dose/g animal)” value came out at 8.5 ± 6.8. In addition, in experiment [2] (Fresh Clots), the Clot/blood is reported as 11, the Clot/heart was found to be 28, the Clot/liver was 13 and the Clot/lung is 16. Besides, in experiment [2] (setting [4]), the “% id/g (clot)” value was determined as 2.3 ± 1.3 % id/g and the “Rel. Conc. (cpm/g of clot by dose/g animal)” value was found to be 7.4 ± 4.0.

On to “Ac-NQEQVSP-Nal(2)-TLLKG-Pn216 [^99mTc-Cmpd 20]”, for which, in experiment [1], the “% specific uptake” value came to 62.4%, the “% retained (no thrombin)” value is 2.6% and the “% retained (with thrombin)” value worked out at 65.0%. Moreover, in experiment [2] (Aged Clots), the Clot/blood worked out at 10, the Clot/heart is 36, the Clot/liver amounted to 23 and the Clot/lung came out at 14. In experiment [2] (setting [3]), the “% id/g (clot)” value was found to be 1.7 ± 0.5 % id/g and the “Rel. Conc. (cpm/g of clot by dose/g animal)” value turned out to be 4.9 ± 1.4. In experiment [2] (Fresh Clots), this substance displayed a Clot/blood of 12, a Clot/heart of 30, a Clot/liver of 18 and a Clot/lung of 11. In experiment [2] (setting [4]), the “% id/g (clot)” value is 2.3 ± 0.6 % id/g and the “Rel. Conc. (cpm/g of clot by dose/g animal)” value is given as 6.5 ± 1.3.

Take “Ac-NQEQVSPLTLLKG-Pn216 (also: 99mTc complex) [^99mTc-Cmpd 19]”: in experiment [1], the “% specific uptake” value was found to be 48.0%, the “% retained (no thrombin)” value is given as 0.2% and the “% retained (with thrombin)” value was determined as 48.2%. In experiment [2] (Aged Clots), this substance yielded a Clot/blood of 14, a Clot/heart of 13, a Clot/liver of 6 and a Clot/lung of 5. Also, in experiment [2] (setting [3]), the “% id/g (clot)” value came out at 3.2 ± 2.3 % id/g and the “Rel. Conc. (cpm/g of clot by dose/g animal)” value is on record as 9.1 ± 7.1. In experiment [2] (Fresh Clots), this substance registered a Clot/blood of 3, a Clot/heart of 29, a Clot/liver of 17 and a Clot/lung of 7. Also, in experiment [2] (setting [4]), the “% id/g (clot)” value came to 2.5 ± 0.3 % id/g and the “Rel. Conc. (cpm/g of clot by dose/g animal)” value is 7.1 ± 1.2.

Turning to “Ac-NQEQVSPYTLL(D-K)G-Pn216 [^99mTc-Cmpd 28]”, in experiment [1], the “% specific uptake” value was determined as 41.9%, the “% retained (no thrombin)” value turned out to be 0.2% and the “% retained (with thrombin)” value is 42.1%. In experiment [2] (Aged Clots), this substance came in with a Clot/blood of 17, a Clot/heart of 3, a Clot/liver of 1 and a Clot/lung of 2. In addition, in experiment [2] (setting [3]), the “% id/g (clot)” value worked out at 4.5 ± 1.1 % id/g and the “Rel. Conc. (cpm/g of clot by dose/g animal)” value was determined as 13.1 ± 3.4. In experiment [2] (Fresh Clots), this substance returned a Clot/blood of 13, a Clot/heart of 31, a Clot/liver of 35 and a Clot/lung of 19. Further, in experiment [2] (setting [4]), the “% id/g (clot)” value is recorded as 3.5 ± 2.0 % id/g and the “Rel. Conc. (cpm/g of clot by dose/g animal)” value was found to be 9.7 ± 5.0.

For “Ac-NQEQVSPYTLLKG-(PEG)10k-Pn216 (Ac-NQEQVSPYTLLKG-{PEG 10k-Pn216}; also: 99mTc complex) [^99mTc-Cmpd 41]”, in experiment [1], the “% specific uptake” value came to 37.4%, the “% retained (no thrombin)” value is 7.1% and the “% retained (with thrombin)” value is given as 44.5%. In experiment [2] (Aged Clots), this substance had a Clot/blood of 1, a Clot/heart of 13, a Clot/liver of 4 and a Clot/lung of 6. Moreover, in experiment [2] (setting [3]), the “% id/g (clot)” value came to 0.4 ± 0.1 % id/g and the “Rel. Conc. (cpm/g of clot by dose/g animal)” value was 1.1 ± 0.3. In experiment [2] (Fresh Clots), this substance gave a Clot/blood of 3, a Clot/heart of 6, a Clot/liver of 8 and a Clot/lung of 4. Besides, in experiment [2] (setting [4]), the “% id/g (clot)” value worked out at 0.7 ± 0.1 % id/g and the “Rel. Conc. (cpm/g of clot by dose/g animal)” value is 2.2 ± 0.3.

For the substance Ac-NQEQVSPYTLLKG-NH2 [^123I-Cmpd 2], in experiment [1], the “% specific uptake” value is reported as 38.4%, the “% retained (no thrombin)” value came out at 0.2% and the “% retained (with thrombin)” value is recorded as 38.6%. In experiment [2] (Aged Clots), this substance gave a Clot/blood of 24, a Clot/heart of 23, a Clot/liver of 20 and a Clot/lung of 12. In addition, in experiment [2] (setting [3]), the “% id/g (clot)” value is listed as 5.5 ± 1.7 % id/g and the “Rel. Conc. (cpm/g of clot by dose/g animal)” value is 14.5 ± 3.9. In experiment [2] (Fresh Clots), this substance yielded a Clot/blood of 7, a Clot/heart of 19, a Clot/liver of 21 and a Clot/lung of 10. Also, in experiment [2] (setting [4]), the “% id/g (clot)” value is 4.9 ± 0.8 % id/g and the “Rel. Conc. (cpm/g of clot by dose/g animal)” value was found to be 14.5 ± 2.2.

In the case of “Ac-NQQQVSPYTLLKG-Pn216 (also: 99mTc complex) [^99mTc-Cmpd 15]”, in experiment [1], the “% specific uptake” value is listed as 55.2%, the “% retained (no thrombin)” value amounted to 0.4% and the “% retained (with thrombin)” value is listed as 55.6%. In experiment [2] (Aged Clots), this substance had a Clot/blood of 3, a Clot/heart of 1 and a Clot/lung of 0.6. In experiment [2] (setting [3]), the “% id/g (clot)” value worked out at 3.4 ± 0.6 % id/g and the “Rel. Conc. (cpm/g of clot by dose/g animal)” value was determined as 7.6 ± 1.6. Further, in experiment [2] (Fresh Clots), the Clot/blood is recorded as 4, the Clot/heart is given as 12, the Clot/liver stood at 11 and the Clot/lung was 6. Besides, in experiment [2] (setting [4]), the “% id/g (clot)” value turned out to be 3.6 ± 1.0 % id/g and the “Rel. Conc. (cpm/g of clot by dose/g animal)” value turned out to be 8.3 ± 2.2.
